In brackets after ≈: the same amount, converted by molar mass. Like-named read-outs stand apart in the source and are kept apart here. Bridge positions count the residues as written; N and C are the ends. Square brackets hold non-standard residues; d marks the D form. Peptide text beside a SMILES is read from it. * marks the point of attachment. Heptanoyl(6-Me) = CC(C)CCCCC(=O)*; Nonanoyl = CCCCCCCCC(=O)*; X1 = CC[C@H](C)CCCCC(=O)*; Heptanoyl = CCCCCCC(=O)*; Octanoyl = CCCCCCCC(=O)*; Orn = NCCC[C@H](N)C(=O)O; dDap = NC[C@@H](N)C(=O)O; Dab = NCC[C@H](N)C(=O)O; Dap = NC[C@H](N)C(=O)O
Columns and labels:
Assay type in all cases: cell-based
[1] = Nephrotoxicity assay: in vitro cytotoxicity of HK-2 cells by CCK-8 assay; conditions: human, HK-2 cells (human renal), 72 h incubation with drug-containing medium
Outline: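 Compounds in sterile water, diluted to final 500, 250, 200, 100, 50, 25 and 12.5 µg/mL, were applied for 72 h to human HK-2 kidney cells. Absorbance at 450 nm after 3 h CCK-8 gave viability against untreated wells, and IC50 came from logarithmic regression; three replicates.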

[2] = test system: Escherichia coli ATCC BAA-2523
Outline: (§1)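 Per CLSI, bacteria at a final (2-4) × 10^5 CFU/mL were exposed in Mueller-Hinton broth to two-fold compound series (final 64 down to 0.03 mg/L). MIC read after 16-20 h at 35-37°C in sealed plates.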

[3] = test system: Escherichia coli ATCC BAA-2340 (KPC)
Outline: as §1

[4] = test system: Acinetobacter baumannii NCTC 13304 (OXA-27)
Outline: as §1

[5] = test system: Pseudomonas aeruginosa PAE19-3
Outline: as §1

[6] = test system: Acinetobacter baumannii ABA19-1
Outline: as §1

[7] = test system: Klebsiella pneumoniae ATCC BAA-1705 (KPC)
Outline: as §1

[8] = test system: Pseudomonas aeruginosa ATCC 27853
Outline: as §1

[9] = test system: Klebsiella pneumoniae KPN+19-15
Outline: as §1

| Structure (SMILES) | IC50 at 72 h [1] [µg/mL] | MIC ([2]; ATCC BAA-2523) [µg/mL] | MIC ([3]; ATCC BAA-2340) [µg/mL] | MIC ([4]; NCTC 13304) [µg/mL] | MIC ([5]; PAE19-3) [µg/mL] | MIC ([6]; ABA19-1) [µg/mL] | MIC ([7]; ATCC BAA-1705) [µg/mL] | MIC ([8]; ATCC 27853) [µg/mL] | MIC ([9]; KPN+19-15) [µg/mL] | MIC ([2]; Escherichia coli ATCC BAA-2523) [µg/mL] | MIC ([3]; Escherichia coli ATCC BAA-2340 (KPC)) [µg/mL] | MIC ([4]; Acinetobacter baumannii NCTC 13304 (OXA-27)) [µg/mL] | MIC ([5]; Pseudomonas aeruginosa PAE19-3) [µg/mL] | MIC ([6]; Acinetobacter baumannii ABA19-1) [µg/mL] | MIC ([7]; Klebsiella pneumoniae ATCC BAA-1705 (KPC)) [µg/mL] | MIC ([8]; Pseudomonas aeruginosa ATCC27853) [µg/mL] | MIC ([9]; Klebsiella pneumoniae KPN 19-15) [µg/mL] |
| --- | --- | --- | --- | --- | --- | --- | --- | --- | --- | --- | --- | --- | --- | --- | --- | --- | --- |
| CCCCCCC(=O)N[C@@H](CCN)C(=O)N[C@H](C(=O)N[C@@H](CCCN)C(=O)N[C@H]1CCNC(=O)[C@H]([C@@H](C)O)NC(=O)[C@H](CCN)NC(=O)[C@H](CCN)NC(=O)[C@H]([C@@H](C)O)NC(=O)[C@@H](Cc2ccccc2)NC(=O)[C@H](CCN)NC1=O)[C@@H](C)O [Compound 29, Heptanoyl-Dab-Thr-Orn-ring(4-10)[Dab-Dab-D-Phe-Thr-Dab-Dab-Thr]] (Heptanoyl-[Dab]T[Orn][Dab][Dab][dF]T[Dab][Dab]T; lactam 4-C) | > 500 | 0.03 (≈ 0.0255 µM) | 0.03 (≈ 0.0255 µM) | 0.06 (≈ 0.051 µM) | 0.5 (≈ 0.425 µM) | 0.125 (≈ 0.106 µM) | 0.03 (≈ 0.0255 µM) | 0.03 (≈ 0.0255 µM) | 0.03 (≈ 0.0255 µM) |  |  |  |  |  |  |  |  |
| CCCCCCCCC(=O)N[C@@H](CCN)C(=O)N[C@H](C(=O)N[C@@H](CCCN)C(=O)N[C@H]1CCNC(=O)[C@H]([C@@H](C)O)NC(=O)[C@H](CCN)NC(=O)[C@H](CCN)NC(=O)[C@H]([C@@H](C)O)NC(=O)[C@@H](Cc2ccccc2)NC(=O)[C@H](CCN)NC1=O)[C@@H](C)O [Compound 30, Nonanoyl-Dab-Thr-Orn-ring(4-10)[Dab-Dab-D-Phe-Thr-Dab-Dab-Thr]] (Nonanoyl-[Dab]T[Orn][Dab][Dab][dF]T[Dab][Dab]T; lactam 4-C) | 270 ± 13.1 (≈ 224 µM) | 0.03 (≈ 0.0249 µM) | 0.03 (≈ 0.0249 µM) | 0.06 (≈ 0.0498 µM) | 0.5 (≈ 0.415 µM) | 0.125 (≈ 0.104 µM) | 0.03 (≈ 0.0249 µM) | 0.03 (≈ 0.0249 µM) | 0.03 (≈ 0.0249 µM) |  |  |  |  |  |  |  |  |
| CC[C@H](C)CCCCC(=O)N[C@@H](CCN)C(=O)N[C@H](C(=O)N[C@H](CN)C(=O)N[C@H]1CCNC(=O)[C@H]([C@@H](C)O)NC(=O)[C@H](CCN)NC(=O)[C@H](CCN)NC(=O)[C@H](CC(C)C)NC(=O)[C@@H](Cc2ccccc2)NC(=O)[C@H](CCN)NC1=O)[C@@H](C)O [Compound 31, (S)-6-methyloctanoyl-Dab-Thr-D-Dap-ring(4-10)[Dab-Dab-D-Phe-Leu-Dab-Dab-Thr]] (X1-[Dab]T[dDap][Dab][Dab][dF]L[Dab][Dab]T; lactam 4-C) | 222 ± 10.2 (≈ 186 µM) | 0.03 (≈ 0.0252 µM) | 0.03 (≈ 0.0252 µM) | 0.03 (≈ 0.0252 µM) | 0.25 (≈ 0.21 µM) | 0.03 (≈ 0.0252 µM) | 0.03 (≈ 0.0252 µM) | 0.03 (≈ 0.0252 µM) | 0.03 (≈ 0.0252 µM) |  |  |  |  |  |  |  |  |
| CC(C)CCCCC(=O)N[C@@H](CCN)C(=O)N[C@H](C(=O)N[C@H](CN)C(=O)N[C@H]1CCNC(=O)[C@H]([C@@H](C)O)NC(=O)[C@H](CCN)NC(=O)[C@H](CCN)NC(=O)[C@H](CC(C)C)NC(=O)[C@@H](Cc2ccccc2)NC(=O)[C@H](CCN)NC1=O)[C@@H](C)O [Compound 32, 6-methylheptanoyl-Dab-Thr-D-Dap-ring(4-10)[Dab-Dab-D-Phe-Leu-Dab-Dab-Thr]] ({Heptanoyl(6-Me)}-[Dab]T[dDap][Dab][Dab][dF]L[Dab][Dab]T; lactam 4-C) | 325 ± 11.7 (≈ 277 µM) | 0.03 (≈ 0.0255 µM) | 0.03 (≈ 0.0255 µM) | 0.03 (≈ 0.0255 µM) | 0.25 (≈ 0.213 µM) | 0.03 (≈ 0.0255 µM) | 0.03 (≈ 0.0255 µM) | 0.03 (≈ 0.0255 µM) | 0.03 (≈ 0.0255 µM) |  |  |  |  |  |  |  |  |
| CCCCCCCC(=O)N[C@@H](CCN)C(=O)N[C@H](C(=O)N[C@H](CN)C(=O)N[C@H]1CCNC(=O)[C@H]([C@@H](C)O)NC(=O)[C@H](CCN)NC(=O)[C@H](CCN)NC(=O)[C@H](CC(C)C)NC(=O)[C@@H](Cc2ccccc2)NC(=O)[C@H](CCN)NC1=O)[C@@H](C)O [Compound 33, Octanoyl-Dab-Thr-D-Dap-ring(4-10)[Dab-Dab-D-Phe-Leu-Dab-Dab-Thr]] (Octanoyl-[Dab]T[dDap][Dab][Dab][dF]L[Dab][Dab]T; lactam 4-C) | 339 ± 9.1 (≈ 289 µM) |  |  |  |  |  |  |  |  | 0.03 (≈ 0.0255 µM) | 0.03 (≈ 0.0255 µM) | 0.03 (≈ 0.0255 µM) | 0.25 (≈ 0.213 µM) | 0.03 (≈ 0.0255 µM) | 0.03 (≈ 0.0255 µM) | 0.03 (≈ 0.0255 µM) | 0.03 (≈ 0.0255 µM) |
| CCCCCCC(=O)N[C@@H](CCN)C(=O)N[C@H](C(=O)N[C@H](CN)C(=O)N[C@H]1CCNC(=O)[C@H]([C@@H](C)O)NC(=O)[C@H](CCN)NC(=O)[C@H](CCN)NC(=O)[C@H](CC(C)C)NC(=O)[C@@H](Cc2ccccc2)NC(=O)[C@H](CCN)NC1=O)[C@@H](C)O [Compound 34, Heptanoyl-Dab-Thr-D-Dap-ring(4-10)[Dab-Dab-D-Phe-Leu-Dab-Dab-Thr]] (Heptanoyl-[Dab]T[dDap][Dab][Dab][dF]L[Dab][Dab]T; lactam 4-C) | 298 ± 3.7 (≈ 256 µM) | 0.06 (≈ 0.0517 µM) | 0.06 (≈ 0.0517 µM) | 0.06 (≈ 0.0517 µM) | 0.5 (≈ 0.431 µM) | 0.06 (≈ 0.0517 µM) | 0.06 (≈ 0.0517 µM) | 0.06 (≈ 0.0517 µM) | 0.06 (≈ 0.0517 µM) |  |  |  |  |  |  |  |  |
| CCCCCCCCC(=O)N[C@@H](CCN)C(=O)N[C@H](C(=O)N[C@H](CN)C(=O)N[C@H]1CCNC(=O)[C@H]([C@@H](C)O)NC(=O)[C@H](CCN)NC(=O)[C@H](CCN)NC(=O)[C@H](CC(C)C)NC(=O)[C@@H](Cc2ccccc2)NC(=O)[C@H](CCN)NC1=O)[C@@H](C)O [Compound 35, Nonanoyl-Dab-Thr-D-Dap-ring(4-10)[Dab-Dab-D-Phe-Leu-Dab-Dab-Thr]] (Nonanoyl-[Dab]T[dDap][Dab][Dab][dF]L[Dab][Dab]T; lactam 4-C) | 138 ± 8.3 (≈ 116 µM) | 0.06 (≈ 0.0504 µM) | 0.06 (≈ 0.0504 µM) | 0.06 (≈ 0.0504 µM) | 0.5 (≈ 0.42 µM) | 0.06 (≈ 0.0504 µM) | 0.06 (≈ 0.0504 µM) | 0.06 (≈ 0.0504 µM) | 0.06 (≈ 0.0504 µM) |  |  |  |  |  |  |  |  |
| CC[C@H](C)CCCCC(=O)N[C@@H](CCN)C(=O)N[C@H](C(=O)N[C@@H](CN)C(=O)N[C@H]1CCNC(=O)[C@H]([C@@H](C)O)NC(=O)[C@H](CCN)NC(=O)[C@H](CCN)NC(=O)[C@H](CC(C)C)NC(=O)[C@@H](Cc2ccccc2)NC(=O)[C@H](CCN)NC1=O)[C@@H](C)O [Compound 36, (S)-6-methyloctanoyl-Dab-Thr-Dap-ring(4-10)[Dab-Dab-D-Phe-Leu-Dab-Dab-Thr]] (X1-[Dab]T[Dap][Dab][Dab][dF]L[Dab][Dab]T; lactam 4-C) | 237 ± 5.3 (≈ 199 µM) | 0.03 (≈ 0.0252 µM) | 0.03 (≈ 0.0252 µM) | 0.03 (≈ 0.0252 µM) | 0.25 (≈ 0.21 µM) | 0.03 (≈ 0.0252 µM) | 0.03 (≈ 0.0252 µM) | 0.03 (≈ 0.0252 µM) | 0.03 (≈ 0.0252 µM) |  |  |  |  |  |  |  |  |
| CC(C)CCCCC(=O)N[C@@H](CCN)C(=O)N[C@H](C(=O)N[C@@H](CN)C(=O)N[C@H]1CCNC(=O)[C@H]([C@@H](C)O)NC(=O)[C@H](CCN)NC(=O)[C@H](CCN)NC(=O)[C@H](CC(C)C)NC(=O)[C@@H](Cc2ccccc2)NC(=O)[C@H](CCN)NC1=O)[C@@H](C)O [Compound 37, 6-methylheptanoyl-Dab-Thr-Dap-ring(4-10)[Dab-Dab-D-Phe-Leu-Dab-Dab-Thr]] ({Heptanoyl(6-Me)}-[Dab]T[Dap][Dab][Dab][dF]L[Dab][Dab]T; lactam 4-C) | 318 ± 10.2 (≈ 270 µM) | 0.03 (≈ 0.0255 µM) | 0.03 (≈ 0.0255 µM) | 0.03 (≈ 0.0255 µM) | 0.25 (≈ 0.213 µM) | 0.03 (≈ 0.0255 µM) | 0.03 (≈ 0.0255 µM) | 0.03 (≈ 0.0255 µM) | 0.03 (≈ 0.0255 µM) |  |  |  |  |  |  |  |  |

From patent publication EP4725957A1, “GROUP OF CYCLIC ALKALINE LIPOPEPTIDE COMPOUNDS, AND PREPARATION METHOD THEREFOR AND USE THEREOF” (Institute of Medicinal Biotechnology, Chinese Academy of …, priority 2023, dated 2024)
